Laboratory results from ChEMBL document CHEMBL4229379, “Synthesis and structure-activity relationship of novel bisindole amidines active against MDR Gram-positive and Gram-negative bacteria” (Eur J Med Chem, 2018).
Values after ≈ are worked out from the molar mass of the structure shown.

Legend:
Staphylococcus aureus [1] = experiment: Antibacterial activity against methicillin-sensitive Staphylococcus aureus 15 after 18 hrs by CLSI broth microdilution method; format: functional; conditions: Staphylococcus aureus, 15, 18 h
Proteus vulgaris = experiment: Antibacterial activity against Proteus vulgaris ATCC 29905 after 18 hrs by CLSI broth microdilution method; format: functional; conditions: ATCC 29905, 18 h
Enterococcus faecalis [2] = experiment: Antibacterial activity against vancomycin-sensitive Enterococcus faecalis ATCC 29212 after 18 hrs by CLSI broth microdilution method; format: functional; conditions: ATCC 29212, 18 h
Enterococcus faecium [3] = experiment: Antibacterial activity against vancomycin-resistant Enterococcus faecium 12-1 after 18 hrs by CLSI broth microdilution method; format: functional; conditions: 12-1, 18 h
Escherichia coli [4] = experiment: Antibacterial activity against extended-spectrum beta-lactamase deficient Escherichia coli 1515 after 18 hrs by CLSI broth microdilution method; format: functional; conditions: Escherichia coli, 1515, 18 h
Enterococcus faecium [5] = experiment: Antibacterial activity against vancomycin-resistant Enterococcus faecium ATCC 700221 after 18 hrs by CLSI broth microdilution method; format: functional; conditions: ATCC 700221, 18 h
Enterobacter cloacae = experiment: Antibacterial activity against Enterobacter cloacae ATCC 43560 after 18 hrs by CLSI broth microdilution method; format: functional; conditions: ATCC 43560, 18 h
Klebsiella pneumoniae [6] = experiment: Antibacterial activity against extended-spectrum beta-lactamase harboring Klebsiella pneumoniae ATCC 700603 after 18 hrs by CLSI broth microdilution method; format: functional; conditions: Klebsiella pneumoniae, 700603, 18 h
Proteus mirabilis = experiment: Antibacterial activity against Proteus mirabilis 12-6 after 18 hrs by CLSI broth microdilution method; format: functional; conditions: 12-6, 18 h
Enterococcus faecalis [7] = experiment: Antibacterial activity against vancomycin-resistant Enterococcus faecalis ATCC 51299 after 18 hrs by CLSI broth microdilution method; format: functional; conditions: ATCC 51299, 18 h
[8] = Cytotoxicity against HEK293T cells assessed as reduction in cell viability after 48 hrs by MTS assay; format: cell-based, HEK-293T; conditions: human
Klebsiella pneumoniae [9] = experiment: Antibacterial activity against extended-spectrum beta-lactamase deficient Klebsiella pneumoniae 7 after 18 hrs by CLSI broth microdilution method; format: functional; conditions: Klebsiella pneumoniae, 7, 18 h
Enterococcus faecium [10] = experiment: Antibacterial activity against vancomycin-sensitive Enterococcus faecium 12-3 after 18 hrs by CLSI broth microdilution method; format: functional; conditions: 12-3, 18 h
Klebsiella aerogenes = experiment: Antibacterial activity against Enterobacter aerogenes ATCC 13048 after 18 hrs by CLSI broth microdilution method; format: functional; conditions: ATCC 13048, 18 h
Providencia rettgeri = experiment: Antibacterial activity against Providencia rettgeri ATCC 31052 after 18 hrs by CLSI broth microdilution method; format: functional; conditions: ATCC 31052, 18 h
Klebsiella pneumoniae [11] = experiment: Antibacterial activity against extended-spectrum beta-lactamase deficient Klebsiella pneumoniae 12-4 after 18 hrs by CLSI broth microdilution method; format: functional; conditions: 12-4, 18 h
[12] = tested on: Staphylococcus epidermidis; experiment: Antibacterial activity against methicillin-resistant Staphylococcus epidermidis 12-8 after 18 hrs by CLSI broth microdilution method; format: functional; conditions: 12-8, 18 h
Staphylococcus aureus [13] = experiment: Antibacterial activity against methicillin-sensitive Staphylococcus aureus 12-28 after 18 hrs by CLSI broth microdilution method; format: functional; conditions: 12-28, 18 h
[14] = tested on: Staphylococcus epidermidis; experiment: Antibacterial activity against methicillin-sensitive Staphylococcus epidermidis ATCC 12228 after 18 hrs by CLSI broth microdilution method; format: functional; conditions: ATCC 12228, 18 h
Escherichia coli [15] = experiment: Antibacterial activity against extended-spectrum beta-lactamase deficient Escherichia coli 12-14 after 18 hrs by CLSI broth microdilution method; format: functional; conditions: 12-14, 18 h
Klebsiella pneumoniae [16] = experiment: Antibacterial activity against new delhi metallo-beta-lactamase-1 harboring Klebsiella pneumoniae ATCC BAA-2146 after 18 hrs by CLSI broth microdilution method; format: functional; conditions: ATCC BAA-2146, 18 h
Escherichia coli [17] = experiment: Antibacterial activity against extended-spectrum beta-lactamase deficient Escherichia coli ATCC 25922 after 18 hrs by CLSI broth microdilution method; format: functional; conditions: ATCC 25922, 18 h
Pseudomonas aeruginosa [18] = experiment: Antibacterial activity against Pseudomonas aeruginosa PAO1 after 18 hrs by CLSI broth microdilution method; format: functional; conditions: PAO1, 18 h
Staphylococcus aureus [19] = experiment: Antibacterial activity against methicillin-sensitive Staphylococcus aureus ATCC 29213 after 18 hrs by CLSI broth microdilution method; format: functional; conditions: ATCC 29213, 18 h
Klebsiella pneumoniae [20] = experiment: Antibacterial activity against extended-spectrum beta-lactamase harboring Klebsiella pneumoniae 12-8 after 18 hrs by CLSI broth microdilution method; format: functional; conditions: 12-8, 18 h
Staphylococcus aureus [21] = experiment: Antibacterial activity against methicillin-resistant Staphylococcus aureus ATCC 33591 after 18 hrs by CLSI broth microdilution method; format: functional; conditions: ATCC 33591, 18 h
Enterococcus faecalis [22] = experiment: Antibacterial activity against vancomycin-sensitive Enterococcus faecalis 12-5 after 18 hrs by CLSI broth microdilution method; format: functional; conditions: 12-5, 18 h
Enterococcus faecalis [23] = experiment: Antibacterial activity against vancomycin-resistant Enterococcus faecalis 09-9 after 18 hrs by CLSI broth microdilution method; format: functional; conditions: 09-9, 18 h
Serratia marcescens = experiment: Antibacterial activity against Serratia marcescens ATCC 21074 after 18 hrs by CLSI broth microdilution method; format: functional; conditions: ATCC 21074, 18 h
Escherichia coli [24] = experiment: Antibacterial activity against extended-spectrum beta-lactamase harboring Escherichia coli 12-15 after 18 hrs by CLSI broth microdilution method; format: functional; conditions: 12-15, 18 h
Staphylococcus aureus [25] = experiment: Antibacterial activity against methicillin-resistant Staphylococcus aureus 12-33 after 18 hrs by CLSI broth microdilution method; format: functional; conditions: 12-33, 18 h
[26] = tested on: Stenotrophomonas maltophilia; experiment: Antibacterial activity against Stenotrophomonas maltophilia ATCC 13636 after 18 hrs by CLSI broth microdilution method; format: functional; conditions: ATCC 13636, 18 h
Citrobacter freundii = experiment: Antibacterial activity against Citrobacter freundii ATCC 43864 after 18 hrs by CLSI broth microdilution method; format: functional; conditions: ATCC 43864, 18 h
Pseudomonas aeruginosa [27] = experiment: Antibacterial activity against Pseudomonas aeruginosa 12-16 after 18 hrs by CLSI broth microdilution method; format: functional; conditions: 12-16, 18 h
[28] = tested on: Staphylococcus epidermidis; experiment: Antibacterial activity against methicillin-sensitive Staphylococcus epidermidis 12-6 after 18 hrs by CLSI broth microdilution method; format: functional; conditions: 12-6, 18 h
[29] = tested on: Acinetobacter calcoaceticus; experiment: Antibacterial activity against Acinetobacter calcoaceticus ATCC 19606 after 18 hrs by CLSI broth microdilution method; format: functional; conditions: ATCC 19606, 18 h
Pseudomonas aeruginosa [30] = experiment: Antibacterial activity against Pseudomonas aeruginosa ATCC 27853 after 18 hrs by CLSI broth microdilution method; format: functional; conditions: ATCC 27853, 18 h

SMILES	MIC (Staphylococcus aureus [1]) [µg/mL]	MIC (Proteus vulgaris) [µg/mL]	MIC (Enterococcus faecalis [2]) [µg/mL]	MIC (Enterococcus faecium [3]) [µg/mL]	MIC (Escherichia coli [4]) [µg/mL]	MIC (Enterococcus faecium [5]) [µg/mL]	MIC (Enterobacter cloacae) [µg/mL]	MIC (Klebsiella pneumoniae [6]) [µg/mL]	MIC (Proteus mirabilis) [µg/mL]	MIC (Enterococcus faecalis [7]) [µg/mL]	CC50 at 48 h [8] [µg/mL]	MIC (Klebsiella pneumoniae [9]) [µg/mL]	MIC (Enterococcus faecium [10]) [µg/mL]	MIC (Klebsiella aerogenes) [µg/mL]	MIC (Providencia rettgeri) [µg/mL]	MIC (Klebsiella pneumoniae [11]) [µg/mL]	MIC [12] [µg/mL]	MIC (Staphylococcus aureus [13]) [µg/mL]	MIC [14] [µg/mL]	MIC (Escherichia coli [15]) [µg/mL]	other results
CN1CCN(C(=N)c2ccc3cc(-c4ccc(-c5cc6ccc(C(=N)N7CCN(C)CC7)cc6[nH]5)cc4)[nH]c3c2)CC1	1 (≈ 1.79 µM)	16 (≈ 28.6 µM)	8 (≈ 14.3 µM)	8 (≈ 14.3 µM)	8 (≈ 14.3 µM)	8 (≈ 14.3 µM)	8 (≈ 14.3 µM)	64 (≈ 115 µM)	> 128	64 (≈ 115 µM)	18.9 (≈ 33.9 µM)	16 (≈ 28.6 µM)	8 (≈ 14.3 µM)	16 (≈ 28.6 µM)	8 (≈ 14.3 µM)	64 (≈ 115 µM)	1 (≈ 1.79 µM)	1 (≈ 1.79 µM)	1 (≈ 1.79 µM)	8 (≈ 14.3 µM)	MIC (Klebsiella pneumoniae [16]): 16 µg/mL (≈ 28.6 µM); MIC (Escherichia coli [17]): 8 µg/mL (≈ 14.3 µM); MIC (Pseudomonas aeruginosa [18]): 128 µg/mL (≈ 229 µM); MIC (Staphylococcus aureus [19]): 1 µg/mL (≈ 1.79 µM); MIC (Klebsiella pneumoniae [20]): 16 µg/mL (≈ 28.6 µM); MIC (Staphylococcus aureus [21]): 1 µg/mL (≈ 1.79 µM); MIC (Enterococcus faecalis [22]): 64 µg/mL (≈ 115 µM); MIC (Enterococcus faecalis [23]): 8 µg/mL (≈ 14.3 µM); MIC (Serratia marcescens): > 128 µg/mL; MIC (Escherichia coli [24]): 8 µg/mL (≈ 14.3 µM); MIC (Staphylococcus aureus [25]): 1 µg/mL (≈ 1.79 µM); MIC [26]: 128 µg/mL (≈ 229 µM); MIC (Citrobacter freundii): 8 µg/mL (≈ 14.3 µM); MIC (Pseudomonas aeruginosa [27]): > 128 µg/mL; MIC [28]: 2 µg/mL (≈ 3.58 µM); MIC [29]: 128 µg/mL (≈ 229 µM); MIC (Pseudomonas aeruginosa [30]): 64 µg/mL (≈ 115 µM)
CN(C)CCCNC(=N)c1ccc2cc(-c3ccc(-c4cc5ccc(C(=N)NCCCN(C)C)cc5[nH]4)cc3)[nH]c2c1	4 (≈ 7.11 µM)	16 (≈ 28.4 µM)	4 (≈ 7.11 µM)	4 (≈ 7.11 µM)	8 (≈ 14.2 µM)	4 (≈ 7.11 µM)	8 (≈ 14.2 µM)	8 (≈ 14.2 µM)	128 (≈ 227 µM)	4 (≈ 7.11 µM)	27.7 (≈ 49.2 µM)	8 (≈ 14.2 µM)	8 (≈ 14.2 µM)	8 (≈ 14.2 µM)	8 (≈ 14.2 µM)	8 (≈ 14.2 µM)	2 (≈ 3.55 µM)	4 (≈ 7.11 µM)	2 (≈ 3.55 µM)	8 (≈ 14.2 µM)	MIC (Klebsiella pneumoniae [16]): 8 µg/mL (≈ 14.2 µM); MIC (Escherichia coli [17]): 4 µg/mL (≈ 7.11 µM); MIC (Pseudomonas aeruginosa [18]): 8 µg/mL (≈ 14.2 µM); MIC (Staphylococcus aureus [19]): 4 µg/mL (≈ 7.11 µM); MIC (Klebsiella pneumoniae [20]): 8 µg/mL (≈ 14.2 µM); MIC (Staphylococcus aureus [21]): 4 µg/mL (≈ 7.11 µM); MIC (Enterococcus faecalis [22]): 8 µg/mL (≈ 14.2 µM); MIC (Enterococcus faecalis [23]): 4 µg/mL (≈ 7.11 µM); MIC (Serratia marcescens): 8 µg/mL (≈ 14.2 µM); MIC (Escherichia coli [24]): 8 µg/mL (≈ 14.2 µM); MIC (Staphylococcus aureus [25]): 4 µg/mL (≈ 7.11 µM); MIC [26]: 8 µg/mL (≈ 14.2 µM); MIC (Citrobacter freundii): 8 µg/mL (≈ 14.2 µM); MIC (Pseudomonas aeruginosa [27]): 32 µg/mL (≈ 56.9 µM); MIC [28]: 4 µg/mL (≈ 7.11 µM); MIC [29]: 128 µg/mL (≈ 227 µM); MIC (Pseudomonas aeruginosa [30]): 8 µg/mL (≈ 14.2 µM)
CN(C)C(=N)c1ccc2cc(-c3cccc(-c4cc5ccc(C(=N)N(C)C)cc5[nH]4)c3)[nH]c2c1	4 (≈ 8.92 µM)	> 128	64 (≈ 143 µM)	8 (≈ 17.8 µM)	64 (≈ 143 µM)	16 (≈ 35.7 µM)	> 128	> 128	> 128	128 (≈ 285 µM)	52.2 (≈ 116 µM)	> 128	> 128	> 128	128 (≈ 285 µM)	> 128	16 (≈ 35.7 µM)	4 (≈ 8.92 µM)	8 (≈ 17.8 µM)	64 (≈ 143 µM)	MIC (Klebsiella pneumoniae [16]): > 128 µg/mL; MIC (Escherichia coli [17]): 64 µg/mL (≈ 143 µM); MIC (Pseudomonas aeruginosa [18]): > 128 µg/mL; MIC (Staphylococcus aureus [19]): 8 µg/mL (≈ 17.8 µM); MIC (Klebsiella pneumoniae [20]): > 128 µg/mL; MIC (Staphylococcus aureus [21]): 4 µg/mL (≈ 8.92 µM); MIC (Enterococcus faecalis [22]): > 128 µg/mL; MIC (Enterococcus faecalis [23]): 64 µg/mL (≈ 143 µM); MIC (Serratia marcescens): > 128 µg/mL; MIC (Escherichia coli [24]): 64 µg/mL (≈ 143 µM); MIC (Staphylococcus aureus [25]): 8 µg/mL (≈ 17.8 µM); MIC [26]: > 128 µg/mL; MIC (Citrobacter freundii): > 128 µg/mL; MIC (Pseudomonas aeruginosa [27]): > 128 µg/mL; MIC [28]: 32 µg/mL (≈ 71.3 µM); MIC [29]: > 128 µg/mL; MIC (Pseudomonas aeruginosa [30]): > 128 µg/mL
